Test results: PubChem BioAssay (NCI)
“And” between values parts separate entries of the source, which are not always exact repeats. Identical values can stand only once.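 Cells were grown in 96-well plates and exposed to each compound for 48 hours at five concentrations; endpoints were interpolated linearly between bracketing concentrations, or set to the highest concentration if not reached. At the GI50, growth is halved. TGI denotes the concentration required for complete inhibition of growth.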 *1 amine or outer side, *2 acyl side, *3 side chain or, on linkers, in order; H or OH if unused. Where a SMILES comes first, the peptide text is derived from it. Bridges are numbered along the chain shown (N, C = ends). Roman numbers before positions name the chains, in order. [ ]: non-standard residue; d: D form. Actinocin(9to1) = Cc1c2oc3c(C)ccc(C(=O)[*:1])c3nc-2c(C(=O)[*:2])c(N)c1=O; NMeT = CN[CH](C(=O)O)[CH](C)O; Sar = CNCC(=O)O

Assays:
Assay in all cases: NCI tumour cell line growth inhibition, 48 h
HCC-2998 colon = system: HCC-2998 colon
TK-10 renal = system: TK-10 renal
HT29 colon = system: HT29 colon
MALME-3M melanoma = system: MALME-3M melanoma
DU-145 prostate = system: DU-145 prostate
COLO 205 colon = system: COLO 205 colon
PC-3 prostate = system: PC-3 prostate
ACHN renal = system: ACHN renal
SR leukemia = system: SR leukemia
CCRF-CEM leukemia = system: CCRF-CEM leukemia

Compound: CCN(Cc1ccccc1)c1ccc(CO)c(Cl)c1
- GI50 (HCC-2998 colon): 8.33 µM
- TGI (HCC-2998 colon): 34.5 µM
- GI50 (TK-10 renal): 0.0649 µM
- TGI (TK-10 renal): 0.281 µM
- GI50 (HT29 colon): 3.07 µM
- TGI (HT29 colon): 36.3 µM
- GI50 (MALME-3M melanoma): 28.6 µM
- TGI (MALME-3M melanoma): > 82.6 µM
- GI50 (DU-145 prostate): 22.5 µM
- TGI (DU-145 prostate): > 59.4 µM
- GI50 (COLO 205 colon): 1.74 µM
- TGI (COLO 205 colon): 4.51 µM
- GI50 (PC-3 prostate): 18.2 µM
- TGI (PC-3 prostate): > 53.6 µM
- GI50 (ACHN renal): 30.2 µM
- TGI (ACHN renal): > 100 µM
- GI50 (SR leukemia): > 52.1 µM
- TGI (SR leukemia): > 100 µM
- GI50 (CCRF-CEM leukemia): 23.3 µM
- TGI (CCRF-CEM leukemia): > 100 µM

Compound: CC(=Nc1ccccc1)C1=C(O)C(Cc2ccc(O)cc2)NC1=O (stereo not given)
- GI50 (HCC-2998 colon): 0.124 µM
- TGI (HCC-2998 colon): 0.641 µM
- GI50 (TK-10 renal): 0.252 µM
- TGI (TK-10 renal): > 100 µM
- GI50 (HT29 colon): 0.0472 µM
- TGI (HT29 colon): 0.452 µM
- GI50 (MALME-3M melanoma): 0.0477 µM
- TGI (MALME-3M melanoma): > 100 µM
- GI50 (DU-145 prostate): 0.178 µM
- TGI (DU-145 prostate): 0.994 µM
- GI50 (COLO 205 colon): 0.076 µM
- TGI (COLO 205 colon): 0.28 µM
- GI50 (PC-3 prostate): 0.0538 µM
- TGI (PC-3 prostate): > 100 µM
- GI50 (ACHN renal): 0.0738 µM
- TGI (ACHN renal): > 100 µM
- GI50 (SR leukemia): 0.0283 µM
- GI50 (CCRF-CEM leukemia): 0.131 µM
- TGI (CCRF-CEM leukemia): > 100 µM

Compound: O=c1ccs[nH]1
- TGI (HCC-2998 colon): 8.02 µM
- TGI (TK-10 renal): 32.8 µM
- TGI (HT29 colon): 34.4 µM
- TGI (MALME-3M melanoma): 35.5 µM
- TGI (DU-145 prostate): > 91.3 µM
- TGI (COLO 205 colon): 30.9 µM
- TGI (PC-3 prostate): 31.4 µM
- TGI (ACHN renal): 17.8 µM
- TGI (SR leukemia): 16.4 µM
- TGI (CCRF-CEM leukemia): 17.2 µM

Compound: NC[C@H]1Nc2ccccc2[C@@H](O)C1O (stereo not given in full)
- TGI (HCC-2998 colon): > 100 µM
- TGI (TK-10 renal): > 100 µM
- TGI (HT29 colon): > 100 µM
- TGI (MALME-3M melanoma): > 100 µM
- TGI (DU-145 prostate): > 100 µM
- TGI (COLO 205 colon): > 100 µM
- TGI (PC-3 prostate): > 100 µM
- TGI (ACHN renal): > 100 µM
- TGI (SR leukemia): > 100 µM
- TGI (CCRF-CEM leukemia): > 100 µM

Compound: COc1ccc(-c2cc(-c3ccc(Cl)cc3)nc(SCCCC(=O)NO)n2)cc1
- GI50 (HCC-2998 colon): 1.68 µM
- TGI (HCC-2998 colon): 3.45 µM
- GI50 (TK-10 renal): 0.499 µM
- TGI (TK-10 renal): 5.78 µM
- GI50 (HT29 colon): 1.41 µM
- TGI (HT29 colon): 3.77 µM
- GI50 (MALME-3M melanoma): 1.86 µM
- TGI (MALME-3M melanoma): 7.01 µM
- GI50 (DU-145 prostate): 0.826 µM
- TGI (DU-145 prostate): 6 µM
- GI50 (COLO 205 colon): 1.69 µM
- TGI (COLO 205 colon): 4.4 µM
- GI50 (PC-3 prostate): 0.874 µM
- TGI (PC-3 prostate): 3.61 µM
- GI50 (ACHN renal): 0.379 µM
- TGI (ACHN renal): 1.88 µM
- GI50 (SR leukemia): 0.358 µM
- GI50 (CCRF-CEM leukemia): 0.222 µM
- TGI (CCRF-CEM leukemia): > 100 µM

Compound: COc1ccc(NC([Se])=NC23CC4CC(CC(C4)C2)C3)cc1
- GI50 (HCC-2998 colon): 2.86 µM
- TGI (HCC-2998 colon): 8.5 µM
- GI50 (TK-10 renal): 2.1 µM
- TGI (TK-10 renal): 5.52 µM
- GI50 (HT29 colon): 2.64 µM
- TGI (HT29 colon): 15 µM
- GI50 (MALME-3M melanoma): 0.653 µM
- TGI (MALME-3M melanoma): 3.74 µM
- GI50 (DU-145 prostate): 3.13 µM
- TGI (DU-145 prostate): 11.2 µM
- GI50 (COLO 205 colon): 1.66 µM
- TGI (COLO 205 colon): 3.95 µM
- GI50 (PC-3 prostate): 0.696 µM
- TGI (PC-3 prostate): 32.2 µM
- GI50 (ACHN renal): 1.99 µM
- TGI (ACHN renal): 4.71 µM
- GI50 (SR leukemia): 1.67 µM
- TGI (SR leukemia): > 100 µM
- GI50 (CCRF-CEM leukemia): 0.705 µM
- TGI (CCRF-CEM leukemia): 4.97 µM

Compound: O=C1CC(=O)N(C(=O)c2nn(-c3ccc(Cl)cc3)cc2O)N1
- GI50 (HCC-2998 colon): 4.17 µM
- TGI (HCC-2998 colon): > 100 µM
- GI50 (TK-10 renal): 0.35 µM
- TGI (TK-10 renal): > 65.2 µM
- GI50 (HT29 colon): 0.585 µM
- TGI (HT29 colon): > 50.4 µM
- GI50 (MALME-3M melanoma): 0.703 µM
- TGI (MALME-3M melanoma): 46.5 µM
- GI50 (DU-145 prostate): 0.923 µM
- TGI (DU-145 prostate): > 100 µM
- GI50 (COLO 205 colon): 0.748 µM
- TGI (COLO 205 colon): 3.99 µM
- GI50 (PC-3 prostate): 0.36 µM
- TGI (PC-3 prostate): > 100 µM
- GI50 (ACHN renal): 0.544 µM
- TGI (ACHN renal): > 100 µM
- GI50 (SR leukemia): 0.26 µM
- TGI (SR leukemia): 5.04 µM
- GI50 (CCRF-CEM leukemia): 0.41 µM
- TGI (CCRF-CEM leukemia): 16.7 µM

Compound: COc1cc(-c2ccc(-c3ccc(C(=N)N)nc3)s2)cc(OC)c1OC
- GI50 (HCC-2998 colon): 2 µM
- TGI (HCC-2998 colon): 3.9 µM
- GI50 (TK-10 renal): 3.19 µM
- TGI (TK-10 renal): 9.35 µM
- GI50 (HT29 colon): 1.37 µM
- TGI (HT29 colon): 5.68 µM
- GI50 (MALME-3M melanoma): 1.53 µM
- TGI (MALME-3M melanoma): 3 µM
- GI50 (DU-145 prostate): 3.45 µM
- TGI (DU-145 prostate): 12.1 µM
- GI50 (COLO 205 colon): 1.6 µM
- TGI (COLO 205 colon): 3.26 µM
- GI50 (PC-3 prostate): 3.11 µM
- TGI (PC-3 prostate): 12.7 µM
- GI50 (ACHN renal): 1.73 µM
- TGI (ACHN renal): 3.14 µM
- GI50 (SR leukemia): 2.48 µM
- GI50 (CCRF-CEM leukemia): 2.49 µM
- TGI (CCRF-CEM leukemia): 7.41 µM

Compound: CS(=O)(=O)CCNCc1ccc(-c2ccc3ncnc(Nc4ccc(OCc5ccccc5)c(Br)c4)c3c2)o1
- GI50 (HCC-2998 colon): 4.56 µM
- TGI (HCC-2998 colon): 9.11 µM
- GI50 (TK-10 renal): 2.02 µM
- TGI (TK-10 renal): > 22 µM
- GI50 (HT29 colon): 4.72 µM
- TGI (HT29 colon): 10.1 µM
- GI50 (MALME-3M melanoma): 5.37 µM
- TGI (MALME-3M melanoma): 10.4 µM
- GI50 (DU-145 prostate): 12.6 µM
- TGI (DU-145 prostate): > 25 µM
- GI50 (COLO 205 colon): 4.69 µM
- TGI (COLO 205 colon): 9.75 µM
- GI50 (PC-3 prostate): 9.28 µM
- TGI (PC-3 prostate): > 25 µM
- GI50 (ACHN renal): 1.13 µM
- TGI (ACHN renal): > 25 µM
- GI50 (SR leukemia): 8.49 µM
- TGI (SR leukemia): > 23.3 µM
- GI50 (CCRF-CEM leukemia): 9.89 µM
- TGI (CCRF-CEM leukemia): > 25 µM

Compound: Cc1c2oc3c(C)ccc(C(=O)NC4C(=O)NC(C(C)C)C(=O)N5CCCC5C(=O)N(C)CC(=O)N(C)C(C(C)O)C(=O)OC4C)c3nc-2c(C(=O)NC2C(=O)NC(C(C)C)C(=O)N3CCCC3C(=O)N(C)CC(=O)N(C)C(C(C)O)C(=O)OC2C)c(N)c1=O (stereo not given) (I: TVP[Sar][NMeT] / II: TVP[Sar][NMeT]; ester I:1-I:C, II:1-II:C; linker I:N-II:N via Actinocin(9to1); configuration not given here)
- GI50 (HCC-2998 colon): 3.64 µM and > 1 µM
- TGI (HCC-2998 colon): > 29.3 µM
- GI50 (TK-10 renal): 4.2 µM and > 1 µM
- TGI (TK-10 renal): > 28.8 µM
- GI50 (HT29 colon): 3.17 µM and 0.724 µM
- TGI (HT29 colon): > 100 µM
- GI50 (MALME-3M melanoma): 0.0949 µM and 0.729 µM
- TGI (MALME-3M melanoma): 6.05 µM and > 1 µM
- GI50 (DU-145 prostate): 5.98 µM and > 1 µM
- TGI (DU-145 prostate): > 100 µM
- GI50 (COLO 205 colon): 2.22 µM and 0.801 µM
- TGI (COLO 205 colon): > 36.8 µM
- GI50 (PC-3 prostate): 2.99 µM and > 1 µM
- TGI (PC-3 prostate): > 100 µM
- TGI (ACHN renal): > 26.6 µM
- GI50 (SR leukemia): 1.1 µM and 0.187 µM
- TGI (SR leukemia): 5.35 µM and > 1 µM
- TGI (CCRF-CEM leukemia): 26.7 µM and > 1 µM

Compound: O=C(O)CCCSc1ccccc1
- TGI (HCC-2998 colon): > 100 µM
- TGI (TK-10 renal): > 100 µM
- TGI (HT29 colon): > 100 µM
- TGI (MALME-3M melanoma): > 100 µM
- TGI (DU-145 prostate): > 100 µM
- TGI (COLO 205 colon): > 100 µM
- TGI (PC-3 prostate): > 100 µM
- TGI (ACHN renal): > 100 µM
- TGI (SR leukemia): > 100 µM
- TGI (CCRF-CEM leukemia): > 100 µM

Compound: N#Cc1ccc2c(c1)C(=O)c1c-2n(CCCCl)c(=O)c2cc([N+](=O)[O-])ccc12
- GI50 (HCC-2998 colon): 12 µM
- TGI (HCC-2998 colon): > 100 µM
- GI50 (TK-10 renal): 42.9 µM
- TGI (TK-10 renal): > 100 µM
- GI50 (HT29 colon): 7.93 µM
- TGI (HT29 colon): > 100 µM
- GI50 (MALME-3M melanoma): 24 µM
- TGI (MALME-3M melanoma): > 100 µM
- GI50 (DU-145 prostate): 2.74 µM
- TGI (DU-145 prostate): 23.9 µM
- GI50 (COLO 205 colon): > 100 µM
- TGI (COLO 205 colon): > 100 µM
- GI50 (PC-3 prostate): 19.1 µM
- TGI (PC-3 prostate): > 100 µM
- GI50 (ACHN renal): 1.91 µM
- TGI (ACHN renal): 6.59 µM
- GI50 (SR leukemia): 0.178 µM
- TGI (SR leukemia): 1.7 µM
- GI50 (CCRF-CEM leukemia): 0.589 µM
- TGI (CCRF-CEM leukemia): 10.7 µM
